From ChEMBL document CHEMBL1641536, “The identification, and optimisation of hERG selectivity, of a mixed NET/SERT re-uptake inhibitor for the treatment of pain” (Bioorg Med Chem Lett, 2011) come the findings set out here.

Series [1] can be described thus: Volume of distribution at steady state in Wistar rat at 1 mg/kg, iv. The format is ADME, organism-based. Also on record: dose 1 mg/kg, route intravenous. The settings on record: in vivo, read-out: Vdss.
The nature of series [2]: Oral bioavailability in Wistar rat at 10 mg/kg. The class given is ADME, organism-based. The settings on record: in vivo.
Series [3] deals with Rattus norvegicus. The series is described as follows: AUC in Wistar rat at 1 mg/kg, iv. The format is ADME, organism-based, Plasma. Set-up: dose 1 mg/kg, route intravenous. The conditions noted are these: in vivo.
Series [4] is described as follows: Tmax in Wistar rat at 10 mg/kg, po. The class given is ADME, organism-based. The settings on record: in vivo. Set-up: dose 10 mg/kg, route oral.
A short description of series [5]: Half life in Wistar rat at 10 mg/kg, po. The class given is ADME, organism-based. Also on record: dose 10 mg/kg, route oral. The settings on record: in vivo.

For `N#Cc1cc(O[C@@H]2C[C@H]3CC[C@@H](C2)N3)cc(-c2ncccc2C#N)c1`, the Vd in series [1] turned out to be 6.9 L/kg. In series [2], the bioavailability (commonly dose-corrected exposure relative to a reference, in per cent) is 34%. In addition, the AUC (usually concentration integrated over time) in series [3] turned out to be 563 ng·h/mL. For the same molecule, the time to peak (Tmax) (in general, the time from dosing to the highest level) in series [4] came to 1.7 h. For the same molecule, in series [5], the half-life – broadly, how long it takes for the measured level to halve – is 3.2 h.
